{"source": "patent US20230338454A1", "about": "“FORSYTHIA SUSPENSA COMPONENT AND OPTIONAL PANAX GINSENG COMPONENT AND THE APPLICATION” (priority 2020, published 2023)", "key": {"parainfluenza virus": {"system": "parainfluenza virus", "assay_type": "in vivo, Kunming mice", "settings": "[…]; 13.0 mg/kg/day by gavage, 5 days"}, "[1]": {"system": "carrageenan-induced paw swelling", "test": "Carrageenan-induced paw swelling in rats", "assay_type": "in vivo, Wistar rats", "settings": "sublingual intravenous injection; for Swelling rate (%) 15 min: 15 min after inflammation induction; for Swelling rate (%) 30 min: 30 min after inflammation induction; for Swelling rate (%) 60 min: 60 min after inflammation induction; for Swelling rate (%) 120 min: 120 min after inflammation induction; for Swelling rate (%) 180 min: 180 min after inflammation induction; for Swelling rate (%) 240 min: 240 min after inflammation induction; for Swelling rate (%) 300 min: 300 min after inflammation induction; for Swelling rate (%) 360 min: 360 min after inflammation induction", "experimental": "Each group was administered by sublingual intravenous injection. Before the study, the normal volume of the right hind limb was measured by the capillary magnification method. To avoid errors, the measurement position should be fixed and performed by one person before and after administration. The average of the two measurements was taken as the normal volume of the right hind limb of the rats prior to administration. […] The inter-group t-test was performed by the difference percentage (swelling rate) of the plantar volume before and after the inflammation induction, and the differences among the groups were compared."}, "influenza virus [2]": {"system": "influenza virus", "assay_type": "in vivo, Kunming mice"}, "[3]": {"system": "mouse splenic lymphocytes", "test": "ConA-induced mouse splenic lymphocyte transformation test", "assay_type": "in vivo, Kunming mice", "settings": "144 mg/kg; gavage once daily for 30 days; mice; ABSa-ABSb at 570 nm", "experimental": "One hundred and fifty-two healthy male mice were subjected to acclimation for 4 days before they were randomly divided into 19 groups: the negative control group, positive control group, forsythin group, 20(R)-ginsenoside Rg3 group, high, middle and low dose groups of panax ginseng-forsythia suspensa composition. […] The drugs were given by gavage, once daily for 30 days, and the negative control group was given the same volume of water. At 1 h after the last dose, the spleens of animals of each group were aseptically excised to prepare splenocyte suspension. After diluting the splenocyte suspension to a concentration of 3×10^6 cells/mL, the splenocyte suspension was divided into 2 aliquots.Each of the aliquot was transferred into two 24-well culture plates at a volume of 1 mL/well followed by addition of 75 µL of ConA solution (a) was added to one well, and the other well was used as control (b). The wells were cultured at 37° C. for 72 h. Then, thiazolyl blue (MTT) was added 4 h before the end of the culture. After incubation, acidic isopropanol was added, and the absorbance (ABS) of each solution was measured at 570 nm after it was mixed well. The proliferativity was calculated using the formula: proliferativity = ABSa-ABSb. Each dose group of the test sample was compared with the negative control group."}, "[4]": {"system": "epithelial cells of plantar sweat glands of rats", "test": "Sweat secretion of rat paw (histomorphology observation method)", "assay_type": "in vivo, Wistar rats", "settings": "1 h after gavage, dose not given", "from_the_text": "After sweat glands activation in rats, besides the increase of sweat secretion, the morphology of the epithelial cells of the sweat glands changes accordingly. Under the optical microscope, the increase and enlargement of vacuoles in the epithelial cells of the sweat glands are observed. Under an electron microscope, the enlarged vacuoles appear to be due to swelling and rupture of mitochondria, enlargement of fusion and secretory vesicles in the epithelial cells of sweat glands. The secretory activity of sweat glands could be understood by observing the histomorphology of the epithelial cells of plantar sweat glands of rats. Three hundred Wistar rats, half male and half female, weighing 120-160 g. were taken in the study. […] Except for the pilocarpine solution given by subcutaneous injection, other groups were administered by gavage. One hour after the control group was given 0.5% carboxymethyl cellulose, 30 min after the positive drug group was given pilocarpine, and 1 h after the administration of forsythin, ginsenoside Rg3 and the panax ginseng-forsythia suspensa composition, the right hind limb was immediately cut off at the level of the ankle joint. […] Observations were made under an optical microscope for changes in the epithelial cells of the plantar sweat glands of rats in each group, mainly the incidence of vacuoles. The statistical processing was performed by X^2 test, and differences among the groups were compared. The above study was repeated for 3 times."}, "Vero cells": {"system": "Vero cells", "test": "Cytotoxicity test of drugs on Vero cells (MTT)", "settings": "72 h"}, "[5]": {"system": "fever induced by beer yeast", "test": "Fever induced by beer yeast in rats", "assay_type": "in vivo, Wistar rats", "settings": "10 mg/kg"}, "Coxsackievirus B3 (CVB3)": {"system": "Coxsackievirus B3 (CVB3)", "test": "Effect of drugs on viral cytopathic effect, effective antiviral rate (ER%)", "assay_type": "cell-based", "settings": "Vero cells, 100TCID50, drug at maximum non-toxic concentration, 72 h, MTT"}, "influenza virus [6]": {"system": "influenza virus", "assay_type": "in vivo, Kunming mice", "settings": "[…]; 13.0 mg/kg/day by gavage, 5 days"}, "Adenovirus (AdV)": {"system": "Adenovirus (AdV)", "test": "Effect of drugs on viral cytopathic effect, effective antiviral rate (ER%)", "assay_type": "cell-based", "settings": "Vero cells, 100TCID50, drug at maximum non-toxic concentration, 72 h, MTT"}, "enterovirus 71 (EV71)": {"system": "enterovirus 71 (EV71)", "test": "Effect of drugs on viral cytopathic effect, effective antiviral rate (ER%)", "assay_type": "cell-based", "settings": "Vero cells, 100TCID50, drug at maximum non-toxic concentration, 72 h, MTT"}, "[7]": {"system": "sweat secretion of rat paw", "test": "Sweat secretion of rat paw (staining method)", "assay_type": "in vivo, Wistar rats", "settings": "of 10 rats; dose not printed, gavage", "from_the_text": "There are sweat glands on the plantar skin of rats, so the changes in sweat secretion can be observed by the purple reaction between the iodine-starch mixture and the sweat. Five hundred Wistar rats, half male and half female, weighing 120-150 g, were taken in the study. […] The rats were placed in a homemade rat-fixing bag to expose both hind limbs. The dirt on the right paw was gently scrubbed with a cotton swab dipped in absolute ethanol. Except for the pilocarpine solution, which was given by subcutaneous injection, other groups were administered by gavage. One hour after administration (30 min after administration in the pilocarpine group), the sweat secreted from the right paw of rats in each group was gently cleaned with a dry cotton swab before the study and during struggling. The right paw was coated with Wotan-[…] reagent A solution (dissolve 2 g of iodine in 100 mL of absolute ethanol) and then coated with Wotan-[…] reagent B solution (mix 50 g of soluble starch and 100 mL of Ricinus conununis oil well) after reagent A was fully absorbed. […] At the end of the test, a rank-sum test was used to analyze the differences among the groups."}, "[8]": {"settings": "[…], 13.0 mg/kg/day by gavage, 5 days"}}}
{"smiles": "CC(C)=CCC[C@](C)(O)[C@H]1CC[C@]2(C)[C@@H]1[C@H](O)C[C@@H]1[C@@]3(C)CC[C@H](O[C@@H]4O[C@H](CO)[C@@H](O)[C@H](O)[C@H]4O[C@@H]4O[C@H](CO)[C@@H](O)[C@H](O)[C@H]4O)C(C)(C)[C@@H]3CC[C@]12C", "note": "[20(R)-Ginsenoside Rg3, 20(R)-ginsenoside Rg3]", "values": [{"measurement": "Hemagglutinin titer (InX)", "setting": "parainfluenza virus", "value": "23.79±1.072"}, {"measurement": "Inhibitory rate (%) of hemagglutination titer", "setting": "parainfluenza virus", "value": 28.15, "unit": "%"}, {"measurement": "Swelling rate (%) 15 min", "setting": "[1]; 2.5 mg/kg", "value": "14.8±8.74", "unit": "%"}, {"measurement": "Swelling rate (%) 30 min", "setting": "[1]; 2.5 mg/kg", "value": "18.9±12.1", "unit": "%"}, {"measurement": "Swelling rate (%) 60 min", "setting": "[1]; 2.5 mg/kg", "value": "23.5±13.3^∗▲▲ %"}, {"measurement": "Swelling rate (%) 120 min", "setting": "[1]; 2.5 mg/kg", "value": "28.9±14.2^∗∗Δ▲ %"}, {"measurement": "Swelling rate (%) 180 min", "setting": "[1]; 2.5 mg/kg", "value": "31.8±14.8^∗∗Δ▲ %"}, {"measurement": "Swelling rate (%) 240 min", "setting": "[1]; 2.5 mg/kg", "value": "33.1±18.3^∗∗Δ▲ %"}, {"measurement": "Swelling rate (%) 300 min", "setting": "[1]; 2.5 mg/kg", "value": "34.9±19.6^∗∗Δ▲ %"}, {"measurement": "Swelling rate (%) 360 min", "setting": "[1]; 2.5 mg/kg", "value": "37.8±18.3^∗▲▲ %"}, {"measurement": "Swelling rate (%) 15 min", "setting": "[1]; 10.0 mg/kg", "value": "14.9±6.13", "unit": "%"}, {"measurement": "Swelling rate (%) 30 min", "setting": "[1]; 10.0 mg/kg", "value": "21.9±9.72", "unit": "%"}, {"measurement": "Swelling rate (%) 60 min", "setting": "[1]; 10.0 mg/kg", "value": "27.1±13.5", "unit": "%"}, {"measurement": "Swelling rate (%) 120 min", "setting": "[1]; 10.0 mg/kg", "value": "30.7±10.2^∗ %"}, {"measurement": "Swelling rate (%) 180 min", "setting": "[1]; 10.0 mg/kg", "value": "33.8±12.1^∗ %"}, {"measurement": "Swelling rate (%) 240 min", "setting": "[1]; 10.0 mg/kg", "value": "31.0±11.3^∗ %"}, {"measurement": "Swelling rate (%) 300 min", "setting": "[1]; 10.0 mg/kg", "value": "35.8±13.5^∗ %"}, {"measurement": "Swelling rate (%) 360 min", "setting": "[1]; 10.0 mg/kg", "value": "36.4±10.2", "unit": "%"}, {"measurement": "Lung index (x̅ ±S)", "setting": "influenza virus [2]; [8]", "value": "1.302±0.046"}, {"measurement": "Lung index Inhibitory rate (%)", "setting": "influenza virus [2]; [8]", "value": 12.51, "unit": "%"}, {"measurement": "Lung index compared with the infection model group, in words", "setting": "influenza virus [2]; mouse, in vivo", "value": "decreased significantly"}, {"measurement": "Proliferation ability (×10^-2)", "setting": "[3]", "value": "23.9±11.70 ×10^-2"}, {"measurement": "Number of vacuolar sweat glands (number)", "setting": "[4]", "value": 79, "unit": "number"}, {"measurement": "Vacuolation rate (%)", "setting": "[4]", "value": "20.26^∗∗ %"}, {"measurement": "Half toxic concentration (TC50)", "setting": "Vero cells", "value": 0.31, "unit": "g/L"}, {"measurement": "Maximum non-toxic concentration (TC0)", "setting": "Vero cells", "value": 0.0048, "unit": "g/L"}, {"measurement": "Body temperature change (%) (antipyretic percentage), time post-dose 1 h", "setting": "[5]; 1 h post-dose", "value": "-0.3±0.41", "unit": "%"}, {"measurement": "Body temperature, time post-dose 1 h", "setting": "[5]; 1 h post-dose", "value": "39.31±0.48", "unit": "°C"}, {"measurement": "Body temperature change (%) (antipyretic percentage), time post-dose 2 h", "setting": "[5]; 2 h post-dose", "value": "-0.69±0.93^∗ %"}, {"measurement": "Body temperature, time post-dose 2 h", "setting": "[5]; 2 h post-dose", "value": "39.04±0.45", "unit": "°C"}, {"measurement": "Body temperature change (%) (antipyretic percentage), time post-dose 3 h", "setting": "[5]; 3 h post-dose", "value": "-1.03±1.18^∗ %"}, {"measurement": "Body temperature, time post-dose 3 h", "setting": "[5]; 3 h post-dose", "value": "38.91±0.40", "unit": "°C"}, {"measurement": "Body temperature change (%) (antipyretic percentage), time post-dose 4 h", "setting": "[5]; 4 h post-dose", "value": "-1.55±1.23^∗ %"}, {"measurement": "Body temperature, time post-dose 4 h", "setting": "[5]; 4 h post-dose", "value": "38.70±0.31", "unit": "°C"}, {"measurement": "Effective Antiviral Rates (ER%) CVB3", "setting": "Coxsackievirus B3 (CVB3)", "value": 53.75, "unit": "%"}, {"measurement": "Hemagglutinin titer (InX)", "setting": "influenza virus [6]", "value": "22.61±1.059"}, {"measurement": "Inhibitory rate (%) of hemagglutination titer", "setting": "influenza virus [6]", "value": 30.22, "unit": "%"}, {"measurement": "Effective Antiviral Rates (ER%) ADV", "setting": "Adenovirus (AdV)", "value": 51.07, "unit": "%"}, {"measurement": "Effective Antiviral Rates (ER%) EV71", "setting": "enterovirus 71 (EV71)", "value": "74.66^∗∗ %"}, {"measurement": "Number of animals with sweat spots of each grade at 1 min after application of solution B: grade +", "setting": "[7]", "value": 1, "unit": "animals"}, {"measurement": "Number of animals with sweat spots of each grade at 1 min after application of solution B: grade ++", "setting": "[7]", "value": 3, "unit": "animals"}, {"measurement": "Number of animals with sweat spots of each grade at 1 min after application of solution B: grade +++", "setting": "[7]", "value": 3, "unit": "animals"}, {"measurement": "Number of animals with sweat spots of each grade at 1 min after application of solution B: grade +++ (fifth grade column)", "setting": "[7]", "value": 3, "unit": "animals"}, {"measurement": "Number of animals with sweat spots of each grade at 1 min after application of solution B: grade -", "setting": "[7]", "value": 0, "unit": "animals"}, {"measurement": "Number of animals with sweat spots of each grade at 5 min after application of solution B: grade +", "setting": "[7]", "value": 1, "unit": "animals"}, {"measurement": "Number of animals with sweat spots of each grade at 5 min after application of solution B: grade ++", "setting": "[7]", "value": 3, "unit": "animals"}, {"measurement": "Number of animals with sweat spots of each grade at 5 min after application of solution B: grade +++", "setting": "[7]", "value": 2, "unit": "animals"}, {"measurement": "Number of animals with sweat spots of each grade at 5 min after application of solution B: grade +++ (fifth grade column)", "setting": "[7]", "value": 4, "unit": "animals"}, {"measurement": "Number of animals with sweat spots of each grade at 5 min after application of solution B: grade -", "setting": "[7]", "value": 0, "unit": "animals"}]}
